# Reference: patent US20020035157A1, “Pharmaceutical compositions” (priority 1999, published 2002)
# Where two headings read alike, the source gives them in different places.
# Assays:
# [1] = system: patients with osteoarthritis pain; experiment: Randomised, double blind, placebo controlled study in painful osteoarthritis: pain scores, analgesic consumption, desire to continue (Example 2); type: in vivo, human; details: for Reduction in pain score (VAS): after 42 days versus baseline pain score 4.2 (mean of days 1-4); for Reduction in pain score (VAS) compared to placebo: after 42 days, decrease beyond that given by cream vehicle alone; for percentage of patients who wished to continue with treatment: after six weeks; for Reduction in daily tablet consumption / Tablets per day after treatment: analgesic use; for Reduction in daily tablet consumption: from initial mean of 4 tablets daily; for Tablets per day after treatment: at beginning of treatment 4 tablets per day; for Mean Pain Score after 42 days (VAS): cream four times daily for six weeks to one painful joint, 0-10 VAS, baseline pain score 4.2; for Patients not wishing to continue / Patients wishing to continue: desire to continue with current treatment after six weeks
# healthy individuals = details: 0.1 ml cream on 1 inch^2 of dorsum of non-dominant hand, single application, rated after 6 hours, 0-10 VAS, 40 volunteers
# [2] = system: patients with osteoarthritis pain
# patients = details: cited from earlier work
Structure (SMILES),Reduction in pain score (VAS) [1] [VAS],Reduction in pain score (VAS) compared to placebo [1] [VAS],percentage of patients who wished to continue with treatment [1] [%],Reduction in daily tablet consumption [1] [tablets],Reduction in daily tablet consumption ([1]; listed as capsaicin) [tablets],Tablets per day after treatment [1] [tablets per day],Mean Pain Score after 42 days (VAS) [1] [VAS],Patients not wishing to continue [1] [patients],Patients wishing to continue [1] [patients],"VAS: median (range), burning discomfort (healthy individuals) [VAS]","VAS: median (range), burning discomfort (healthy individuals; listed as C)","Application discomfort - Baseline scores versus treatment, VAS ([2]; regression estimate of baseline discomfort relative to the other groups, 10 cm VAS) [VAS]","patients who suffered burning after application (patients; 0.025% capsaicin, Watson and colleagues, Clinical Therapeutics 1993)","patients who suffered burning discomfort after application (patients; 0.075% capsaicin, The Capsaicin Study Group)","VAS: median (range), burning discomfort (healthy individuals; listed as D)",initial application discomfort ([2]; equal effect to placebo),"Application discomfort - changes resulting from baseline score, Coefficient ([2]; human, in vivo)"
"COc1cc(CNC(=O)CCCC/C=C/C(C)C)ccc1O [Capsaicin, N-(4-hydroxy-3-methoxybenzyl)-8-methylnon-trans-6-enamide]",0.5,0.28,24.4,0.28,0.28,3.72,3.70,29,11,3,3 (0-7) VAS,2.1,9 of 33,87 of 138,,,
"O=[N+]([O-])OCC(CO[N+](=O)[O-])O[N+](=O)[O-] [GTN, Glyceryl trinitrate]",0.59,0.37,27.5,,,3.52,3.61,34,11,0,,,,,0 (0-2) VAS,marginal initial discomfort,0.33
